For data set [1] the following is noted: background, prior art, cited from earlier work.
The conditions of data set [2]: bulk solution maintained at 5° C. to 15° C., such as 12° C.±3° C., for an extended period of time.

The structures appear in SMILES notation. Like-named read-outs stand apart in the source and are kept apart here.

Turning to `O=P1(N(CCCl)CCCl)NCCCO1` (stereo not drawn) [monohydrate drug form, cyclophosphamide monohydrate], the stability as reported result in data set [1] (monohydrate) was “stable”.

`O=P1(N(CCCl)CCCl)NCCCO1` (stereo not drawn) [anhydrous form, cyclophosphamide anhydrous]: the stability as reported entry in data set [1] is on record as “highly unstable”. With `O=P1(N(CCCl)CCCl)NCCCO1` (stereo not drawn) [cyclophosphamide, 2-[bis(2-chloroethyl)amino]tetrahydro-2H-1,3,2-oxazaphosphorine 2-oxide], the “degradation in bulk solution” value in data set [2] is “significant degradation”.
